Measurements from the supplement of paper PMC4628005.

Legend:
Conditions in all cases: drug exposure time: 96 h
Bortezomib = compound: CC(C)C[C@H](NC(=O)[C@H](Cc1ccccc1)NC(=O)c1cnccn1)B(O)O [Bortezomib]
Experimental: (§1)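 Same SRB 96 h IC50 screen on breast cancer cell lines (RPMI 1640 + 10% FBS, collagen I-coated 96-well plates, triplicates, 12 dilutions), for drugs with a different dose range: Bortezomib up to 2e-5 M; Sirolimus and 17-AAG up to 2e-6 M. Sirolimus values at the 2e-6 M top dose are censored.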

Sirolimus = compound: CO[C@H]1C[C@@H]2CC[C@@H](C)[C@@](O)(O2)C(=O)C(=O)N2CCCC[C@H]2C(=O)O[C@H]([C@H](C)C[C@@H]2CC[C@@H](O)[C@H](OC)C2)CC(=O)[C@H](C)/C=C(\C)[C@@H](O)[C@@H](OC)C(=O)[C@H](C)C[C@H](C)/C=C/C=C/C=C/1C [Sirolimus]
Experimental: as §1

17-AAG = compound: C=CCNC1=C2C[C@@H](C)C[C@H](OC)[C@H](O)[C@@H](C)/C=C(\C)[C@H](OC(N)=O)[C@@H](OC)/C=C\C=C(/C)C(=O)NC(=CC1=O)C2=O [17-AAG]
Experimental: as §1

Vorinostat = compound: O=C(CCCCCCC(=O)Nc1ccccc1)NO [Vorinostat]
Experimental: (§2)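 Breast cancer cell lines were grown in RPMI 1640 with 10% FBS on collagen I-coated 96-well plates and treated for 96 h (from 24 h after seeding) with 12 dilutions per drug, in triplicate. Growth was read by sulforhodamine B total-protein staining (absorbance 570 nm) relative to diluent control, and IC50 was calculated. The top dose was 1e-5 M for most drugs; Bortezomib went to 2e-5 M and Sirolimus and 17-AAG to 2e-6 M[…].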

Brivanib = compound: Cc1cc2c(F)c(Oc3ncnn4cc(OC[C@@H](C)O)c(C)c34)ccc2[nH]1 [Brivanib]
Experimental: as §2

Doxorubicin = compound: COc1cccc2c1C(=O)c1c(O)c3c(c(O)c1C2=O)C[C@@](O)(C(=O)CO)C[C@@H]3O[C@H]1C[C@H](N)[C@H](O)[C@H](C)O1 [Doxorubicin]
Experimental: as §2

Gefitinib = compound: COc1cc2ncnc(Nc3ccc(F)c(Cl)c3)c2cc1OCCCN1CCOCC1 [Gefitinib]
Experimental: as §2

Paclitaxel = compound: CC(=O)O[C@H]1C(=O)[C@@]2(C)[C@H]([C@H](OC(=O)c3ccccc3)[C@]3(O)C[C@H](OC(=O)[C@H](O)[C@@H](NC(=O)c4ccccc4)c4ccccc4)C(C)=C1C3(C)C)[C@]1(OC(C)=O)CO[C@@H]1C[C@@H]2O [Paclitaxel]
Experimental: as §2

Mitoxantrone = compound: O=C1c2c(O)ccc(O)c2C(=O)c2c(NCCNCCO)ccc(NCCNCCO)c21 [Mitoxantrone]
Experimental: as §2

Cisplatin = compound: N.N.[Cl][Pt][Cl] [Cisplatin]
Experimental: as §2

Vandetanib = compound: COc1cc2/c(=N/c3ccc(Br)cc3F)nc[nH]c2cc1OCC1CCN(C)CC1 [Vandetanib]
Experimental: as §2

MI-219 = compound: CC(C)(C)C[C@H]1N[C@@H](C(=O)NCC[C@H](O)CO)[C@H](c2cccc(Cl)c2)[C@@]12C(=O)Nc1cc(Cl)c(F)cc12 [MI-219]
Experimental: as §2

Methotrexate = compound: CN(Cc1cnc2nc(N)nc(N)c2n1)c1ccc(C(=O)N[C@@H](CCC(=O)O)C(=O)O)cc1 [Methotrexate]
Experimental: as §2

Erlotinib = compound: C#Cc1cccc(Nc2ncnc3cc(OCCOC)c(OCCOC)cc23)c1 [Erlotinib]
Experimental: as §2

Dasatinib = compound: Cc1nc(Nc2ncc(C(=O)Nc3c(C)cccc3Cl)s2)cc(N2CCN(CCO)CC2)n1 [Dasatinib]
Experimental: as §2

Belinostat = compound: O=C(/C=C/c1cccc(S(=O)(=O)Nc2ccccc2)c1)NO [Belinostat]
Experimental: as §2

Nutlin-3 = compound: COc1ccc(C2=N[C@@H](c3ccc(Cl)cc3)[C@@H](c3ccc(Cl)cc3)N2C(=O)N2CCNC(=O)C2)c(OC(C)C)c1 [Nutlin-3]
Experimental: as §2

Tamoxifen = compound: CC/C(=C(\c1ccccc1)c1ccc(OCCN(C)C)cc1)c1ccccc1 [Tamoxifen]
Experimental: as §2

Serdemetan = compound: c1ccc2c(CCNc3ccc(Nc4ccncc4)cc3)c[nH]c2c1 [Serdemetan]
Experimental: as §2

Azacitidine = compound: Nc1ncn([C@@H]2O[C@H](CO)[C@@H](O)[C@H]2O)c(=O)n1 [Azacitidine]
Experimental: as §2

Quisinostat = compound: Cn1cc(CNCC2CCN(c3ncc(C(=O)NO)cn3)CC2)c2ccccc21 [Quisinostat]
Experimental: as §2

5-Fluorouracil = compound: O=c1[nH]cc(F)c(=O)[nH]1 [5-Fluorouracil]
Experimental: as §2

Sorafenib = compound: CNC(=O)c1cc(Oc2ccc(NC(=O)Nc3ccc(Cl)c(C(F)(F)F)c3)cc2)ccn1 [Sorafenib]
Experimental: as §2

Lapatinib = compound: CS(=O)(=O)CCNCc1ccc(-c2ccc3ncnc(Nc4ccc(OCc5cccc(F)c5)c(Cl)c4)c3c2)o1 [Lapatinib]
Experimental: as §2

Panobinostat = compound: Cc1[nH]c2ccccc2c1CCNCc1ccc(/C=C/C(=O)NO)cc1 [Panobinostat]
Experimental: as §2

ARQ197 = compound: O=C1NC(=O)[C@@H](c2cn3c4c(cccc24)CCC3)[C@@H]1c1c[nH]c2ccccc12 [ARQ197]
Experimental: as §2

Decitabine = compound: Nc1ncn([C@H]2C[C@H](O)[C@@H](CO)O2)c(=O)n1 [Decitabine]
Experimental: as §2

Docetaxel = compound: CC(=O)O[C@@]12CO[C@@H]1C[C@H](O)[C@@]1(C)C(=O)[C@H](O)C3=C(C)[C@@H](OC(=O)[C@H](O)[C@@H](NC(=O)OC(C)(C)C)c4ccccc4)C[C@@](O)([C@@H](OC(=O)c4ccccc4)[C@H]21)C3(C)C [Docetaxel]
Experimental: as §2

Tipifarnib = compound: Cn1cncc1[C@@](N)(c1ccc(Cl)cc1)c1ccc2c(c1)c(-c1cccc(Cl)c1)cc(=O)n2C [Tipifarnib]
Experimental: as §2

Sunitinib = compound: CCN(CC)CCNC(=O)c1c(C)[nH]c(/C=C2\C(=O)Nc3ccc(F)cc32)c1C [Sunitinib]
Experimental: as §2

| Test System | IC50 (SRB growth assay) (Bortezomib) [nM] | IC50 (SRB growth assay) (Sirolimus) [nM] | IC50 (SRB growth assay) (17-AAG) [nM] | IC50 (SRB growth assay) (Vorinostat) [nM] | IC50 (SRB growth assay) (Brivanib) [nM] | IC50 (SRB growth assay) (Doxorubicin) [nM] | IC50 (SRB growth assay) (Gefitinib) [nM] | IC50 (SRB growth assay) (Paclitaxel) [nM] | IC50 (SRB growth assay) (Mitoxantrone) [nM] | IC50 (SRB growth assay) (Cisplatin) [nM] | IC50 (SRB growth assay) (Vandetanib) [nM] | IC50 (SRB growth assay) (MI-219) [nM] | IC50 (SRB growth assay) (Methotrexate) [nM] | IC50 (SRB growth assay) (Erlotinib) [nM] | IC50 (SRB growth assay) (Dasatinib) [nM] | IC50 (SRB growth assay) (Belinostat) [nM] | IC50 (SRB growth assay) (Nutlin-3) [nM] | IC50 (SRB growth assay) (Tamoxifen) [nM] | IC50 (SRB growth assay) (Serdemetan) [nM] | IC50 (SRB growth assay) (Azacitidine) [nM] | IC50 (SRB growth assay) (Quisinostat) [nM] | IC50 (SRB growth assay) (5-Fluorouracil) [nM] | IC50 (SRB growth assay) (Sorafenib) [nM] | IC50 (SRB growth assay) (Lapatinib) [nM] | IC50 (SRB growth assay) (Panobinostat) [nM] | IC50 (SRB growth assay) (ARQ197) [nM] | IC50 (SRB growth assay) (Decitabine) [nM] | IC50 (SRB growth assay) (Docetaxel) [nM] | IC50 (SRB growth assay) (Tipifarnib) [nM] | IC50 (SRB growth assay) (Sunitinib) [nM] |
| --- | --- | --- | --- | --- | --- | --- | --- | --- | --- | --- | --- | --- | --- | --- | --- | --- | --- | --- | --- | --- | --- | --- | --- | --- | --- | --- | --- | --- | --- | --- |
| UACC 812 | 7.5 | 0.144 | 3.62 | 2270 | > 10000 | 79.9 | 4830 | 5.67 | 275 | > 10000 | 3540 | 822 | > 10000 | 4080 | 1600 | 901 | 1720 | > 10000 | 1050 | > 10000 | 17.2 | 6240 | 3110 | 132 | 29.9 | 528 | > 10000 | 1.65 | 666 | 5490 |
| ZR 75-1 | 5.51 | 0.244 | 45.9 | 2980 | > 10000 | 44.9 | > 10000 | 6.65 | 10.2 | > 10000 | 3820 | > 10000 | 34.5 | > 10000 | 1660 | 1680 | > 10000 | 4490 | 822 | 3750 | 27.1 | 2320 | 5980 | 6330 | 46.8 | 733 | > 10000 | 4.52 | 822 | > 10000 |
| MDA-MB 468 | 4.31 | 2.22 | 745 | 1030 | > 10000 | 9.63 | 990 | 1.56 | 4.09 | 974 | 1990 | > 10000 | 7.54 | 1150 | > 10000 | 436 | > 10000 | 4940 | 837 | 2340 | 9.89 | 5280 | 4530 | 762 | 14.9 | 222 | 77.7 | 0.515 | 77 | 2940 |
| OCUB-M | 3.35 | 0.132 | 119 | 520 | > 10000 | 1.98 | > 10000 | 0.888 | 1.27 | > 10000 | 2770 | > 10000 | 6.6 | 9580 | > 10000 | 133 | > 10000 | > 10000 | 2850 | 1690 | 5.92 | 1880 | 3830 | 2200 | 8.13 | 483 | 3680 | 0.279 | 156 | 3520 |
| MDA-MB 453 | 6.37 | 0.19 | 3.08 | 368 | > 10000 | 31.9 | > 10000 | 2.14 | 8.79 | > 10000 | 5110 | > 10000 | > 10000 | > 10000 | 3.93 | 52.7 | > 10000 | 6360 | 796 | 7190 | 2.01 | > 10000 | 4930 | 827 | 5.73 | 192 | 4170 | 0.872 | 2140 | 6260 |
| SUM 52 PE | 5.23 | 0.165 | 35.4 | 366 | 1270 | 17.7 | 7870 | 1.42 | 7.57 | 6700 | 711 | > 10000 | 23.2 | 8810 | 2200 | 183 | > 10000 | 6890 | 570 | 2000 | 1.47 | 1240 | 655 | 3210 | 7.17 | 427 | 2210 | 0.489 | 185 | 1160 |
| MDA-MB 415 | 10.8 | 0.688 | 71.8 | 1530 | > 10000 | 66 | > 10000 | 5.81 | 31.3 | > 10000 | 4780 | > 10000 | 326 | > 10000 | > 10000 | 548 | > 10000 | 9970 | 6070 | > 10000 | 24.1 | 6530 | 5200 | > 10000 | 23.6 | 691 | > 10000 | 0.764 | 6780 | 5100 |
